The results in this text go back to article PMC10988834, “Neq2X7: a multi-purpose and open-source fusion DNA polymerase for advanced DNA engineering and diagnostics PCR” (BMC Biotechnology, 2024).

This test has as its target T1, Neq2X (Nanoarchaeum equitans, UniProt Q74M37+Q74N74, Q74N74:A523R/Q74N74:N540R).
T1 construct: gene NEQ068; double mutant Neq DNA polymerase without Sso7d, N-terminal 6xHis; one polypeptide, E. coli Rosetta2 (DE3) pLysS
Briefly: PCR amplification, agarose gel. To be noted: with dATP, dCTP, dGTP, 1 min/kb, extension 72 °C. The class given is biochemical.

T1 sequence (Q74M37 entry or part of it): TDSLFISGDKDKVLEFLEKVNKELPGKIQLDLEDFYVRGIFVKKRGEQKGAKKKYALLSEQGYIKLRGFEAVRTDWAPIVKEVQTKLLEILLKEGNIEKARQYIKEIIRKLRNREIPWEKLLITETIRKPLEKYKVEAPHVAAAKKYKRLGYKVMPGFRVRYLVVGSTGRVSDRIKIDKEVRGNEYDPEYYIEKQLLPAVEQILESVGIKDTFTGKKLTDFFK
T1 sequence (Q74N74 entry or part of it A523R/N540R): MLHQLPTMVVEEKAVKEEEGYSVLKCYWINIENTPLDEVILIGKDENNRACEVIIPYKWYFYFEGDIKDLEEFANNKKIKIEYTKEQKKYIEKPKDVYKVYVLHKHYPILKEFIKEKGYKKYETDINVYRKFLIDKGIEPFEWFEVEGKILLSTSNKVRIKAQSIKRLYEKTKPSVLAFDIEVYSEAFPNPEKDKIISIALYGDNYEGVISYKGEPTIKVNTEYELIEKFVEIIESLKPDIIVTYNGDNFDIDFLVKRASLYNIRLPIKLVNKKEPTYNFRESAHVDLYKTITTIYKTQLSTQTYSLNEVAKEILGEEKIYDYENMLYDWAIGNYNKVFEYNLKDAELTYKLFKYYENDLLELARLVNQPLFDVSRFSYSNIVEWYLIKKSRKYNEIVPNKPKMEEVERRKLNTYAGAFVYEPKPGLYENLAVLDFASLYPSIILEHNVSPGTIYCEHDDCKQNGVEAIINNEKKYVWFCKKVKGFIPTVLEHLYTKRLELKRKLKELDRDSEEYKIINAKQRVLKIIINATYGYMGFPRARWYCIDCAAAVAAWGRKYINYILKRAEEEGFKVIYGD

Regarding `Cc1cn([C@H]2C[C@H](O)[C@@H](COP(=O)(O)OP(=O)(O)OP(=O)(O)O)O2)c(=O)[nH]c1=O` [dTTP], the “PCR amplification, agarose gel” value (3-12 kb amplicons) is “all three polymerases amplified DNA to a detectable level”.
Turning to `O=c1ccn([C@H]2C[C@H](O)[C@@H](COP(=O)(O)OP(=O)(O)OP(=O)(O)O)O2)c(=O)[nH]1` [dUTP], the “PCR amplification, agarose gel” value (dUTP fully replacing dTTP, 3 kb amplicon) was “all tested polymerases were able to generate a detectable PCR product”.
